Columns and labels:
Details in all cases: 72 h
Caco-2 [1] = test: relative viability EC50 (midpoint between 100% and the lowest measured viability); higher = less toxic
U2OS [2] = test: as above
Vero E6 [3] = test: as above
HepG2 [4] = test: as above
Calu-3 [5] = test: as above
Caco-2 [6] = test: drug sensitivity score (DSS) for viability; higher = more toxic; extreme values may be limits of the assay
U2OS [7] = test: as above
Vero E6 [8] = test: as above
HepG2 [9] = test: as above
Calu-3 [10] = test: as above
Caco-2 [11] = test: cell viability relative to DMSO; higher = less toxic
U2OS [12] = test: as above
Vero E6 [13] = test: as above
HepG2 [14] = test: as above
Calu-3 [15] = test: as above

Row | SMILES | relative viability EC50 (Caco-2 [1]) [µM] | relative viability EC50 (U2OS [2]) [µM] | relative viability EC50 (Vero E6 [3]) [µM] | relative viability EC50 (HepG2 [4]) [µM] | relative viability EC50 (Calu-3 [5]) [µM] | drug sensitivity score (Caco-2 [6]) | drug sensitivity score (U2OS [7]) | drug sensitivity score (Vero E6 [8]) | drug sensitivity score (HepG2 [9]) | drug sensitivity score (Calu-3 [10]) | cell viability (Caco-2 [11]; 1 nM) [%] | cell viability (Caco-2 [11]; 10 nM) [%] | cell viability (Caco-2 [11]; 100 nM) [%] | cell viability (Caco-2 [11]; 1000 nM) [%] | cell viability (Caco-2 [11]; 10000 nM) [%] | cell viability (U2OS [12]; 1 nM) [%] | cell viability (U2OS [12]; 10 nM) [%] | cell viability (U2OS [12]; 100 nM) [%] | cell viability (U2OS [12]; 1000 nM) [%] | cell viability (U2OS [12]; 10000 nM) [%] | cell viability (Vero E6 [13]; 1 nM) [%] | cell viability (Vero E6 [13]; 10 nM) [%] | cell viability (Vero E6 [13]; 100 nM) [%] | cell viability (Vero E6 [13]; 1000 nM) [%] | cell viability (Vero E6 [13]; 10000 nM) [%] | cell viability (HepG2 [14]; 1 nM) [%] | cell viability (HepG2 [14]; 10 nM) [%] | cell viability (HepG2 [14]; 100 nM) [%] | cell viability (HepG2 [14]; 1000 nM) [%] | cell viability (HepG2 [14]; 10000 nM) [%] | cell viability (Calu-3 [15]; 1 nM) [%] | cell viability (Calu-3 [15]; 10 nM) [%] | cell viability (Calu-3 [15]; 100 nM) [%] | cell viability (Calu-3 [15]; 1000 nM) [%] | cell viability (Calu-3 [15]; 10000 nM) [%]
1 | Cc1cc(C)cc(C(=O)N(C)[C@H](Cc2ccc(-c3ccccc3)cc2)C(=O)N[C@@H](Cc2c[nH]c3ccccc23)C(=O)O)c1 [IRL-2500] | > 10 | > 10 | > 10 | > 10 | > 10 | 0 | 0 | 0 | 0 | 0 | 94 | 96.8 | 96.7 | 97.4 | 101 | 96.4 | 95.5 | 101 | 98.5 | 102 | 94.3 | 96.1 | 90.1 | 95.5 | 111 | 92.5 | 106 | 99.4 | 116 | 118 | 103 | 90.3 | 107 | 92.8 | 96.9
2 | CCc1cc2c(s1)-n1c(C)nnc1CN=C2c1ccccc1Cl [etizolam] | > 10 | > 10 | > 10 | > 10 | > 10 | 0 | 0 | 0 | 0 | 0 | 102 | 103 | 96.4 | 94.3 | 99.2 | 98.6 | 102 | 98.8 | 97.3 | 96.5 | 104 | 106 | 105 | 99.8 | 99.6 | 104 | 106 | 106 | 93.1 | 108 | 101 | 93.2 | 105 | 96.4 | 105
3 | O=C1CC(=O)c2c(Cl)c(Cl)c(Cl)c(Cl)c21 [TCID] | > 10 | > 10 | > 10 | > 10 | > 10 | 0 | 0 | 0 | 0 | 0 | 120 | 102 | 98.3 | 91.1 | 95.6 | 101 | 103 | 106 | 104 | 94.6 | 101 | 99.1 | 97 | 101 | 100 | 99.9 | 101 | 104 | 107 | 107 | 88 | 88.5 | 91.7 | 77.9 | 89.2
4 | O=C1c2c(O)ccc(O)c2C(=O)c2c(NCCNCCO)ccc(NCCNCCO)c21 [mitoxantrone] | 0.565 | 0.514 | 0.35 | 0.11 | 0.15 | 10.7 | 14.6 | 13.9 | 21.6 | 14.6 | 93.3 | 96.5 | 86.2 | 53 | 22.3 | 95.8 | 102 | 88.7 | 30.6 | 0.7 | 98.8 | 96 | 66.5 | 51.4 | 13.6 | 93.1 | 82.4 | 53.2 | 21.8 | 1.7 | 104 | 98.4 | 65.1 | 46.7 | 28.9
5 | CC(C)Cc1ccc([C@@H](C)C(=O)NCCO)cc1 (racemic) [mabuprofen] | > 10 | > 10 | > 10 | > 10 | > 10 | 0 | 0 | 0 | 0 | 0 | 102 | 96.4 | 104 | 94 | 96.1 | 105 | 98.9 | 103 | 100 | 100 | 102 | 100 | 101 | 97.9 | 94.7 | 92.7 | 105 | 90.8 | 95.3 | 96.4 | 106 | 103 | 105 | 99.4 | 117
6 | CC(C)(C)c1ccc(S(=O)(=O)NCc2ccc(C(=O)Nc3cccnc3)cc2)cc1 [STF-31] | 2.26 | 0.698 | 3.2 | 1.45 | 3.48 | 7 | 13.6 | 5.4 | 8.1 | 4.7 | 96.7 | 99.3 | 96.2 | 89.6 | 5.5 | 103 | 98.8 | 106 | 28.8 | 0.2 | 103 | 102 | 106 | 101 | 2.9 | 105 | 103 | 106 | 76.5 | 16.9 | 90.7 | 96.3 | 100 | 106 | 7.7
7 | Cc1cccc(Cc2c[nH]cn2)c1C [detomidine] | > 10 | > 10 | > 10 | > 10 | > 10 | 0 | 0 | 0 | 0 | 0 | 94.2 | 94 | 97.5 | 86.7 | 96.1 | 101 | 98.2 | 103 | 96.5 | 101 | 91 | 101 | 90.5 | 102 | 106 | 99.4 | 101 | 104 | 113 | 113 | 99.7 | 93 | 102 | 103 | 102

Reference: the supplement of paper PMC13380429
